The values that follow come from PubChem BioAssay AID977621 (Broad Institute, 2014).

Results filed as inconclusive are left out. The source made the active and inactive calls.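 Rule for the calls: active = Wild-type ribosome reporter drop at least double the humanized mutant ribosome reporter drop, growth loss under a set limit; inconclusive = no clear call, values can overlap the other calls; inactive = the rest.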

For the test, the system named is E. coli wild-type GFP strain growth, fluorescence, 24 h. Briefly: growth inhibition of wild-type GFP E. coli, dose response, H69 mutant RFP, cherry-pick (AID 977621).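 Note: wild-type GFP and H69 mutant RFP strains grown together 50/50 in each well.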
Where [1] appears, read: E. coli mixed culture, 24 h, measured here: total growth OD600, test 2.

In general, AC50 refers to the concentration at which the activity in the assay is half-maximal. In the case of `COc1ccc(-c2noc(=O)n2Cc2ccccc2Cl)cc1`, the AC50 was > 100 µM (inactive).

As for `CCOC(=O)c1sc2nc(NC(=O)C(C)(C)C)sc2c1C`, the AC50 was > 100 µM (inactive). In addition, the concentration at half-maximal activity (AC50) under setting [1] was 38.9 µM. Take `Nc1ccc2nc(-c3ccc(Cl)cc3)[nH]c2c1`: the AC50 is > 100 µM (inactive). `O=C(N[C@@H](Cc1ccccc1)C(=O)OCc1ccccc1)c1nc[nH]c1C(=O)NC1CCNCC1`: the AC50 was > 100 µM (inactive). On to `O=C(C[C@@H]1CC[C@@H]2[C@H](COC[C@H](O)CN2C(=O)Nc2ccc(Cl)cc2)O1)N1CCCCC1`, for which the AC50 is > 100 µM (inactive). For the same compound, the AC50 under setting [1] was 46 µM. For `CCC(=O)c1ccc(OCC(=O)Nc2nc(C)cs2)cc1` the same measures were > 100 µM (inactive) and over 100 µM. Regarding `CCN(c1cccc2ccccc12)S(=O)(=O)c1ccc(Cl)nc1`, the AC50 was > 100 µM (inactive).

With `COc1cc2nc(Nc3ccc(F)cc3)nc(N)c2cc1OC`, the AC50 is > 100 µM (inactive). Consider `O=C(O)c1ccc(S(=O)(=O)N(Cc2ccc(F)cc2)C2CCCCC2)cc1`, for which the AC50 is > 100 µM (inactive). This compound returned an AC50 under setting [1] of 30.2 µM.

`COc1ccc(C(=O)N(c2ccccc2)c2nccc3ccccc23)cc1OC`: the AC50 was > 100 µM (inactive). Same read-out and setting: with `C[C@@H]1CCCCO[C@@H](CN(C)C(=O)c2ccccc2)[C@H](C)CN([C@@H](C)CO)C(=O)c2cc(NC(=O)c3ccccc3)ccc2O1` the figure was > 100 µM (inactive).

With `COc1cccc(-c2ccc(SCc3ccccn3)nn2)c1`, the AC50 was > 100 µM (inactive). Moreover, the half-maximal activity concentration (AC50) under setting [1] turned out to be 48.2 µM. As to `CCCNC(=O)c1cc(C2CCCN(S(=O)(=O)c3cccc4cccnc34)C2)on1` (stereo not drawn), the AC50 was > 100 µM (inactive). `COc1cc(-c2cc3nc(NCCc4ccncc4)ccn3n2)cc(OC)c1OC`: the AC50 is > 100 µM (inactive).

As for `C=CCN(c1ccccc1)S(=O)(=O)c1cccc2cccnc12`, the AC50 under setting [1] was over 100 µM. The same measure, in the same setting: the result for `CCc1cc2cc(OC)ccc2nc1SCC(=O)Nc1cc(OC)c(OC)cc1C(=O)O` reads over 100 µM. On to `O=C1C(c2ccccc2)c2ccccc2N1Cc1ccccc1` (stereo not drawn), for which the AC50 was > 100 µM (inactive). On the same count and under the same terms, the result for `COC(=O)c1ccc(CN2CCCC(CO)(Cc3ccccc3F)C2)cc1` (stereo not drawn) reads > 100 µM (inactive). With `Cc1ccc(C)c(N(CC(=O)NC2CCCC2)C(=O)c2oc(C(C)(C)C)cc2C)c1`, the AC50 is > 100 µM (inactive). Besides, the half-maximal activity concentration (AC50) under setting [1] is over 100 µM.

`Cc1cc(C)c(NC(=O)C(C)c2cccc(C(=O)c3ccccc3)c2)c(C)c1` (stereo not drawn) registered a half-maximal activity concentration (AC50) under setting [1] of 47.2 µM. Turning to `COc1ccc(OC)c(C(=O)COC(=O)c2ccc([N+](=O)[O-])o2)c1`, the AC50 was > 100 µM (inactive). For the same compound, the AC50 under setting [1] is over 100 µM.

Under setting [1], `CCc1ccc(CN2CCCC(CNS(=O)(=O)c3ccc(OC)cc3)C2)cc1` (stereo not drawn) showed an AC50 of over 100 µM. Compound `CCC(C(=O)NC1CCCC1)n1c(-c2ccnc3ccccc23)nc2ccccc21` (stereo not drawn) returned an AC50 under setting [1] of over 100 µM. Consider `COc1cccc(OCCNS(=O)(=O)c2ccccc2[N+](=O)[O-])c1`, for which the AC50 was > 100 µM (inactive). In the case of `Clc1ccccc1-c1nnc2sc(CCc3ccccc3)nn12`, the AC50 is > 100 µM (inactive). Under setting [1], this compound returned an AC50 of 15.4 µM. On to `COc1ccccc1-c1cc2nc(NCCc3ccncc3)ccn2n1`, for which the AC50 is > 100 µM (inactive). As for `COc1ccc(OC)c(-c2nnc3n2N=C(c2ccc(OC)c(OC4CCOC4)c2)CS3)c1` (stereo not drawn), the AC50 was > 100 µM (inactive). The AC50 under setting [1] is over 100 µM. Turning to `CSc1ccccc1OCc1cc(C(=O)N[C@H]2CCCCNC2=O)no1`, the AC50 is > 100 µM (inactive). With `Cc1c(C(=O)N(Cc2ccc(F)cc2)C2CCS(=O)(=O)C2)oc2ccccc12` (stereo not drawn), the AC50 was > 100 µM (inactive).

On to `CN1C(=O)c2cc(NC(=O)c3cccc(F)c3)ccc2OC[C@H]2O[C@@H](CC(=O)N3CCc4ccccc4C3)CC[C@@H]21`, for which the AC50 is > 100 µM (inactive). `O=C(CCNC(=O)c1ccco1)Nc1cccc(Br)c1`: the AC50 under setting [1] was over 100 µM. `O=C(Cn1cc(C(=O)c2ccco2)c2ccccc21)Nc1ccccc1F`: the AC50 was > 100 µM (inactive). Still for that read-out and setting: the result for `CCOCC(=O)Nc1c(C(=O)Nc2ccc3c(c2)OCCO3)oc2ccccc12` reads > 100 µM (inactive); that for `CCOc1ccc(OCc2cccc(C(=O)O)c2)cc1`, > 100 µM (inactive). For `CCCN(CC(=O)Nc1ccccc1C)C(=O)c1cccc(S(=O)(=O)N2CCc3ccccc3C2)c1`, the AC50 was > 100 µM (inactive). Also, the AC50 under setting [1] worked out at 40.8 µM. In the case of `CCOC(=O)C1CCCN(C(=O)c2csc(-c3ccc4c(c3)CCO4)n2)C1` (stereo not drawn), the AC50 is > 100 µM (inactive). Still for that read-out and setting: the result for `OCCCc1cn(-c2ccccc2)c2ccccc12` reads > 100 µM (inactive). As for `C=CCn1c(CCSCc2ccc(OC)c(C)c2)n[nH]c1=S`, the AC50 is > 100 µM (inactive). Besides, under setting [1], the AC50 came to 33.6 µM.

On to `COc1cc(C2CC(=O)Oc3cc(C)cc(C)c32)cc(OC)c1OC` (stereo not drawn), for which the AC50 is > 100 µM (inactive). On to `N#CCC(=O)Nc1ccc(C(=O)OCC(=O)Nc2ccc3ccccc3c2)cc1`, for which the AC50 is > 100 µM (inactive). Consider `Cc1cc(NCc2ccccn2)n2nc(C)c(-c3ccccc3)c2n1`, for which, under setting [1], the half-maximal activity concentration (AC50) amounted to 49.3 µM. Turning to `O=C(Nc1cscc1S(=O)(=O)c1ccccc1)c1ccccc1Cl`, the AC50 is > 100 µM (inactive). Turning to `Cc1ccc(OCCn2c(=S)[nH]c3c(N)ncnc32)cc1`, the AC50 was > 100 µM (inactive). Under setting [1], this compound yielded a half-maximal activity concentration (AC50) of 31.8 µM. On the same counts, the results for `COc1cccc(-c2ccc([C@@H]3[C@H](CO)N4CCCCN(S(=O)(=O)c5cccs5)C[C@@H]34)cc2)c1` are > 100 µM (inactive) and 33.5 µM.

As for `COc1cccc(NC(=O)CN(C)CC(=O)Nc2ccc(Br)cc2)c1`, the AC50 was > 100 µM (inactive). On the same count and under the same terms, with `O=C(O)c1ccc(Oc2ccc([N+](=O)[O-])cc2)c([N+](=O)[O-])c1` the figure was > 100 µM (inactive). On the same count and under the same terms, the result for `COc1ccccc1Cn1c(=S)[nH]c2ccc(F)cc2c1=O` reads > 100 µM (inactive).

Turning to `N#Cc1cccc(-c2ccc3c(c2)[C@H]2[C@H](CCN2C(=O)c2ccccc2F)[C@H](CO)N3)c1`, the AC50 was > 100 µM (inactive). For the compound `Cc1sc2ncn(CC(=O)Nc3ccccc3F)c(=O)c2c1-c1ccccc1`, the AC50 is > 100 µM (inactive). In the case of `Cc1ccc(N2C(=S)NC3c4cc(Cl)ccc4OC2(C)C3C(=O)N(C)C)cc1` (stereo not drawn), the AC50 under setting [1] is over 100 µM. Consider `Nc1ccccc1C#CC(=O)c1ccccc1`, for which the AC50 was > 100 µM (inactive).

Regarding `CC1(C(=O)Nc2ccc3c(c2)OCCO3)CSCC(=O)N1CCOc1ccccc1` (stereo not drawn), the AC50 was > 100 µM (inactive). The compound also came in with an AC50 under setting [1] of over 100 µM. For `C=C1SC(Nc2c(C)cc(C)cc2C)=NC12CCCCC2`, the AC50 is > 100 µM (inactive). The AC50 under setting [1] worked out at 31.9 µM. As for `COc1cc(SC)ccc1C(=O)N1CCN(c2ccccc2F)CC1`, the AC50 is > 100 µM (inactive).

For the compound `O=C(CC(=O)c1cccs1)c1ccncc1`, the AC50 is > 100 µM (inactive). On to `O=C1c2ccccc2NC(c2cccc(F)c2)N1Cc1ccco1` (stereo not drawn), for which, under setting [1], the AC50 came to 9.09 µM.

Regarding `CCOc1ccccc1N(CC(=O)Nc1ccccc1F)S(=O)(=O)c1ccccc1`, the AC50 was > 100 µM (inactive). This compound showed an AC50 under setting [1] of 15.6 µM. On the same counts, the results for `Fc1cccc(CCN2C(=S)NC[C@@H]2CC2CCCCC2)c1` are > 100 µM (inactive) and 6.09 µM. `CC(CCc1ccccc1)NC(=O)CNC(=O)COc1ccccc1` (stereo not drawn) had an AC50 under setting [1] of over 100 µM. As to `O=C(c1ccc(N2CCCCC2)c([N+](=O)[O-])c1)N1CCN(c2ccccn2)CC1`, the AC50 was > 100 µM (inactive). Besides, under setting [1], the AC50 was over 100 µM. On to `O=C(NCCCN1CCOCC1)c1sc2cc([N+](=O)[O-])ccc2c1Cl`, for which the AC50 was > 100 µM (inactive). For `CC(C)Oc1ccc(C(=O)Nc2cccc3cccnc23)cc1`, the half-maximal activity concentration (AC50) under setting [1] is over 100 µM. In the case of `Cc1cc(C(=O)COC(=O)c2ccc(Br)o2)c(C)n1C`, the AC50 is > 100 µM (inactive). Also, the AC50 under setting [1] was determined as 48.4 µM. For `CC(OC(=O)CCc1c[nH]c2ccccc12)C(=O)c1ccccc1` (stereo not drawn) the same measures were > 100 µM (inactive) and 46.5 µM. Turning to `CN(Cc1c(F)cccc1Cl)C(=O)c1ccc(NS(=O)(=O)c2ccc3[nH]c(=O)[nH]c3c2)cc1`, the AC50 is > 100 µM (inactive). Still for that read-out and setting: the result for `COc1cc(CO)cc(Br)c1OCC(=O)Nc1cccc2ccccc12` reads > 100 µM (inactive). Same read-out and setting: with `CCN(c1ccccc1)S(=O)(=O)c1ccc(Cl)c(NC(=O)CSc2n[nH]c(N)n2)c1` the figure was > 100 µM (inactive). On the same count and under the same terms, the result for `Cc1ccc(CNC(=O)c2ccc(Br)o2)cc1` reads > 100 µM (inactive). In turn, `CS(=O)(=O)N(CC(=O)N1CCc2ccccc2C1)c1cccc(Br)c1` displayed a concentration at half-maximal activity (AC50) under setting [1] of over 100 µM. In the case of `O=C(O)c1ccc(COc2ccc3ccccc3c2)o1`, the AC50 was > 100 µM (inactive). Also, the concentration at half-maximal activity (AC50) under setting [1] was over 100 µM. In the case of `O=C(NCc1ccc2c(c1)OCO2)c1sccc1Br`, the AC50 is > 100 µM (inactive). The same measure, in the same setting: with `S=c1[nH]c2cc(Cl)ccc2s1` the figure was > 100 µM (inactive). Consider `Cc1ccc(-c2c[n+](CC(=O)Nc3ccccc3)c3n2CCC3)cc1`, for which the half-maximal activity concentration (AC50) under setting [1] is over 100 µM.

With `NS(=O)(=O)c1cccc(NC(=O)c2cccc(-c3ccc(O)cc3)c2)c1`, the AC50 is > 100 µM (inactive). On to `CCOC(=O)c1cc2sccc2n1CCCN1C(=O)c2ccccc2C1=O`, for which the AC50 was > 100 µM (inactive). The compound also came in with an AC50 under setting [1] of over 100 µM.

In turn, `Fc1cccc(Cl)c1CSc1ccc(-c2ccco2)nn1` had an AC50 under setting [1] of over 100 µM.

Turning to `CC(C)(CC(=O)O)CC(=O)NCc1c(Cl)cccc1Sc1ccc(Cl)cc1`, the AC50 was > 100 µM (inactive). `COc1ccc(NS(=O)(=O)c2ccc(NC(=O)c3ccccc3Br)cc2)nn1`: the AC50 is > 100 µM (inactive). Same read-out and setting: with `O=[N+]([O-])c1ccc(N2CCOCC2)c2c1no[n+]2[O-]` the figure was > 100 µM (inactive). For `CCOC(=O)Cc1csc(SCC(=O)Nc2cc(C)ccc2OC)n1`, the AC50 was > 100 µM (inactive). Also, under setting [1], the AC50 was over 100 µM.
